Our source for the fold change and EC50 values is patent publication EP1285971B1, “Methods for the phenotypic and genotypic assessment of the drug sensitivity of HIV integrase variants” (Tibotec Pharmaceuticals Ltd., priority 2001, dated 2003).

The subject of the assay is pHXB2D control. Briefly: Antiviral experiment with control clone, transfected directly without recombination. The class given is cell-based, HIV. To be noted: no recombination; for fold change: fold change in EC50. The method, then: Recombinant virus was produced by co-transfection by electroporation of the SmaI-linearized IN-deletion construct and the integrase amplicon into MT4 cells or MT4 cells equipped with an LTR driven reporter gene construct. Production of recombinant virus was evaluated by scoring the cytopathogenic effect (CPE) that is induced by HIV-infection of MT4 cells or by the LTR-driven reporter signal induced by HIV infection in MT4 reporter cells. Green fluorescent protein was used as the reporter signal. Viruses are harvested and titrated at maximum CPE. For recombination the deletion construct pSV40HXB2D-ΔIN was used. Recombination experiments were performed with amplicon from wildtype HIV IIIB and NL4.3, and patient sample 146514 generated by both primer sets. For each recombination 2 µg amplicon was co-transfected with 10 µg SmaI-digested pSV40HXB2D-ΔIN by electroporation into MT4-LTR-EGFP cells. Virus stocks were titrated and tested in an antiviral experiment on a reference panel including nucleoside reverse transcriptase inhibitors (NRTI), non- nucleoside reverse transcriptase inhibitors (NNRTI), protein inhibitor (PR), entry and integrase (IN) inhibitors (Table 2). Recombination was checked by nucleic acid sequence analysis using protocols known to the person skilled in the art. Sequencing primers which can be used are In_seq1F (SEQ ID NO 17), In_seq2F (SEQ ID NO 18), In_seq3F (SEQ ID NO 19), IN_seq1R (SEQ ID NO 20), IN_seq2R (SEQ ID NO 21), and IN_seq3R (SEQ ID NO 22). The recombinant virus was evaluated in an anti-viral assay with a panel of reference compounds including nucleoside RT inhibitors (NRTI) Zidovudine (AZT) Lamivudine (3TC), Didanosine (DDI), non-nucleoside RT inhibitors (NNRTI) Nevirapine (NVP), 4-[[6-amino-5-bromo-2-[(4-cyanophenyl)amino]-4-pyrimidinyl]oxy]-3,5-dimethyl-benzonitrile also referred to as compound 1, 4-[[6-amino-5-bromo-2-[(4-cyanophenyl)amino]-4-pyrimidinyl]oxy]-3,5-dimethyl-Benzonitrile, also referred to as compound 2 protease inhibitors (PR) Saquinavir (SQV), Amprenavir (APV), Indinavir (IDV), [[…]-3-[[(4-aminophenyl)sulfonyl](2-methylpropyl)amino]-2-hydroxy-1-(phenylmethyl)-propyl]-, (3R,3aS,6aR)-hexahydrofuro[2,3-b]furan-3-yl ester carbamic acid also referred to as compound 3, entry-inhibitors (Entry)(AMD3100, DS5000, ATA), and integrase inhibitor (IN) 2-(1-methylethyloxy)-α,γ dioxo-5-(phenylmethyl)-benzenebutanoic acid also referred to as compound 4. […] AVE means antiviral experiment. Type means the type of inhibitor investigated. The fold change is the fold change in EC50. WT III B means that a portion of the wild type IIIB strain has been amplified and used in the antiviral experiment, including transfection and generation of recombinant virus. NL 4-3 means the integrase gene of this laboratory strain has been amplified and subsequently used for the antiviral experiment. […] No recombination has been effected using this HIV clone. pHXB2D has been used directly for transfection and antiviral experiment. Primer set 3 consist of outer primers 5'EGINT3 (SEQ ID NO 4) and 3'EGINT10 (SEQ ID NO 11), and inner primers 5'EGINT4 (SEQ ID NO 5) and 3'EGINT6 (SEQ ID NO 7). Primer set 4 consist of outer primers 5'EGINT3 (SEQ ID NO 4) and 3'EGINT10 (SEQ ID NO 11), and inner primers 5'EGINT5 […] and 3'EGINT6 (SEQ ID NO 7). Other suitable integrase inhibitors include L-731,988, diketo-acids and S-1360.

The mark [1] stands for this setting: Human immunodeficiency virus 1, AVE 6, pHXB2D control.

For orientation: EC50 means the concentration that produces a half-maximal response. In the case of `c1cc(CN2CCCNCCNCCCNCC2)ccc1CN1CCCNCCNCCCNCC1` [AMD3100], the fold change (AVE 6, pHXB2D control) is 1,0. For the same compound, the EC50 under setting [1] was found to be 55.6 nM.

In the case of `CC(C)CN(C[C@@H](O)[C@H](Cc1ccccc1)NC(=O)O[C@H]1CCOC1)S(=O)(=O)c1ccc(N)cc1` [APV, Amprenavir], the fold change (AVE 6, pHXB2D control) was 1,0. In addition, under setting [1], the EC50 is 83.8 nM.

For the compound `O=C(O)C1=CC(=C(c2ccc(O)c(C(=O)O)c2)c2ccc(O)c(C(=O)O)c2)C=CC1=O` [ATA], under “AVE 6, pHXB2D control”, the EC50 was determined as 2070 nM and the fold change is 1,0.

On to `Cc1cn([C@H]2C[C@H](N=[N+]=[N-])[C@@H](CO)O2)c(=O)[nH]c1=O` [AZT, Zidovudine], for which the fold change (AVE 6, pHXB2D control) was 1,0. Besides, under setting [1], the EC50 is 168 nM.

As for `Cc1cc(C#N)cc(C)c1Oc1nc(Nc2ccc(C#N)cc2)nc(N)c1Br` [Compound 1, 4-[[6-amino-5-bromo-2-[(4-cyanophenyl)amino]-4-pyrimidinyl]oxy]-3,5-dimethyl-benzonitrile], under “AVE 6, pHXB2D control”, the EC50 was found to be 1 nM and the fold change was 1,0.

With `Cc1cc(C#N)cc(C)c1Oc1nc(Nc2ccc(C#N)cc2)nc(N)c1Br` [Compound 2, 4-[[6-amino-5-bromo-2-[(4-cyanophenyl)amino]-4-pyrimidinyl]oxy]-3,5-dimethyl-Benzonitrile], under “AVE 6, pHXB2D control”, the half-maximal effective concentration (EC50) stood at 3.1 nM and the fold change was 1,0.

As to `Nc1ccn([C@@H]2CS[C@H](CO)O2)c(=O)n1` [Compound 3TC, Lamivudine], the fold change (AVE 6, pHXB2D control) is given as 1,0. Further, under setting [1], the EC50 was found to be 1380 nM.

`CC(C)Oc1ccc(Cc2ccccc2)cc1C(=O)CC(=O)C(=O)O` [Compound 4, 2-(1-methylethyloxy)-α,γ dioxo-5-(phenylmethyl)-benzenebutanoic acid]: the fold change (AVE 6, pHXB2D control) is given as 1,0. Further, the EC50 under setting [1] worked out at 276 nM.

Take `O=c1[nH]cnc2c1ncn2[C@H]1CC[C@@H](CO)O1` [DDI, Didanosine]: the fold change (AVE 6, pHXB2D control) is recorded as 1,0. In addition, the EC50 under setting [1] was determined as 4820 nM.

Regarding `CC(C)(C)NC(=O)[C@@H]1CN(Cc2cccnc2)CCN1C[C@@H](O)C[C@@H](Cc1ccccc1)C(=O)N[C@H]1c2ccccc2C[C@H]1O` [IDV, Indinavir], where the note is “AVE 6, pHXB2D control”, the fold change is 1,0. The EC50 under setting [1] was 43.9 nM.

Take `Cc1ccnc2c1NC(=O)c1cccnc1N2C1CC1` [NVP, Nevirapine]: the fold change (AVE 6, pHXB2D control) was 1,0. Besides, under setting [1], the concentration giving a half-maximal response (EC50) was 86.3 nM.

Take `CC(C)c1nc(CN(C)C(=O)N[C@H](C(=O)N[C@@H](Cc2ccccc2)C[C@H](O)[C@H](Cc2ccccc2)NC(=O)OCc2cncs2)C(C)C)cs1` [RTV, ritonavir]: the fold change (AVE 6, pHXB2D control) was 1,0. Further, the EC50 under setting [1] was 148 nM.

For `CC(C)(C)NC(=O)[C@@H]1C[C@@H]2CCCC[C@@H]2CN1C[C@@H](O)[C@H](Cc1ccccc1)NC(=O)[C@H](CC(N)=O)NC(=O)c1ccc2ccccc2n1` [SQV, Saquinavir], where the note is “AVE 6, pHXB2D control”, the fold change is 1,0. Moreover, under setting [1], the EC50 came to 19.8 nM.
